{
  "source": "patent US10300144B2",
  "about": "“N-terminal polysialylation” (Lipoxen Technologies Limited, priority 2006, dated 2019)",
  "key": {"[1]": {"tested_on": "blood glucose", "test": "In vivo efficacy of insulin formulations (blood glucose after subcutaneous injection)", "parameters": "species or system mice", "details": "for T-Test probability level of the difference against the Tris buffer, in vivo efficiency: mice", "procedure": "The in vivo efficacy of insulin formulations was studied in female mice CD-1, 7-8 weeks old, 0.3 IU of protein dose (same activity) was injected in mice subcutaneously. Animals were divided into seven groups of four. insulin formulations were given to each animal of each group in the following manner; insulin (0.3 IU/mouse), Lantus (Aventis) insulin-PSA conjugate (14 KDa), PBS, one drop of blood was taken from each animal and was measured blood glucose by ACCU-CHEK Active (Roche Diagnostics)."}, "[2]": {"test": "Isoelectric focusing (IEF) gel", "format": "physicochemical", "details": "IEF gel pH 3-10", "procedure": "Novex® IEF gel was used to determine differences in insulin and CAO-insulin conjugate isoelectric points. Samples was dissolved to a concentration of 0.5 mg/ml. 5 ul sample was diluted with 5 ul Novex IEF Sample Buffer pH 3-10 and then loaded the protein sample on the gel."}, "[3]": {"tested_on": "liver enzymes", "details": "cited from earlier work"}, "[4]": {"details": "cyanuric chloride activated PEG (2000 Da) conjugates; cited from earlier work"}, "[5]": {"tested_on": "blood sugar levels", "details": "rabbits, calculated on a molar basis; cited from earlier work"}, "[6]": {"test": "Colominic acid (CAO) stability at different pH", "format": "physicochemical", "procedure": "Colominic acid samples (CA and CAO) were dissolved in NaNO3 (0.2M), CH3CN (10%; 5 mg/ml) and were chromatographed on over 2× GMPWXL columns with detection by refractive index (GPC system: VE1121 GPC solvent pump, VE3580 RI detector and collation with Trisec 3 software (Viscotek Europe Ltd). Samples (5 mg/ml) were filtered over 0.45 μm nylon membrane and run at […] with 0.2M NaNO3 and CH3CN (10%) as the mobile phase.\nThe rules for chemistry of the PEGylation cannot be applied to polysialylation as such because of the difference in the physiochemical properties of these molecules. PSA is an acid labile polymer and is stable for weeks around neutral pH (FIG. 3). […] Polysialic acid is highly hydrophilic whereas PEG is an ampiphilic molecule in nature. When the polysialylation is carried out using conditions used for PEGylation, aggregation and precipitation of the proteins is seen in many cases."}},
  "data": [
    {"substance": "13 kDa CAO-insulin: N-terminal conjugate of insulin with 13 kDa oxidised colominic acid (polysialic acid)", "values": [
      {"measurement": "T-Test probability level of the difference against the Tris buffer, in vivo efficiency", "setting": "[1]; time 32.0 minutes", "result": "** (** P < 0.01)"},
      {"measurement": "T-Test probability level of the difference against the Tris buffer, in vivo efficiency", "setting": "[1]; time 64.5 minutes", "result": "*** (*** P < 0.001)"},
      {"measurement": "T-Test probability level of the difference against the Tris buffer, in vivo efficiency", "setting": "[1]; time 99.4 minutes", "result": "*** (*** P < 0.001)"},
      {"measurement": "isoelectric point (pI)", "setting": "[2]", "result": "no fixed isoelectric point"}
    ]},
    {"substance": "15 KDa CAO-insulin (Sigma): conjugate of insulin with 15 kDa oxidised colominic acid", "values": [
      {"measurement": "pH effect (of polysialylation) on in vivo efficiency", "setting": "[1]; conjugation pH 6.0 versus 7.4", "result": "pH 6.0 is better than 7.4"},
      {"measurement": "probability level of the difference against the PBS buffer", "setting": "[1]; time 30 (unit not given)", "result": "** (**P < 0.01)"},
      {"measurement": "probability level of the difference against the PBS buffer", "setting": "[1]; time 60 (unit not given)", "result": "*** (***P < 0.001)"},
      {"measurement": "probability level of the difference against the PBS buffer", "setting": "[1]; time 90 (unit not given)", "result": "*** (***P < 0.001)"},
      {"measurement": "probability level of the difference against the PBS buffer", "setting": "[1]; time 120 (unit not given)", "result": "** (**P < 0.01)"},
      {"measurement": "probability level of the difference against the PBS buffer", "setting": "[1]; time 150 (unit not given)", "result": "* (*P < 0.05)"}
    ]},
    {"substance": "21 kDa CAO-insulin: conjugate of insulin with 21 kDa oxidised colominic acid", "values": [
      {"measurement": "T-Test probability level of the difference against the Tris buffer, in vivo efficiency", "setting": "[1]; time 64.5 minutes", "result": "*** (*** P < 0.001)"},
      {"measurement": "T-Test probability level of the difference against the Tris buffer, in vivo efficiency", "setting": "[1]; time 99.4 minutes", "result": "*** (*** P < 0.001)"},
      {"measurement": "T-Test probability level of the difference against the Tris buffer, in vivo efficiency", "setting": "[1]; time 230.2 minutes", "result": "* (* P < 0.05)"}
    ]},
    {"substance": "21.5 kd CAO-insulin: conjugate of insulin with 21.5 kDa oxidised colominic acid (FIG. 9)", "values": [
      {"measurement": "effect on decreasing blood glucose in mice", "setting": "[1]; among conjugates of FIG. 9 (10, 15, 21.5 kDa), PBS control", "result": "most significant effect on the decreasing blood glucose in mice"}
    ]},
    {"substance": "27 kDa CAO-insulin: conjugate of insulin with 27 kDa oxidised colominic acid", "values": [
      {"measurement": "T-Test probability level of the difference against the Tris buffer, in vivo efficiency", "setting": "[1]; time 32.0 minutes", "result": "** (** P < 0.01)"},
      {"measurement": "T-Test probability level of the difference against the Tris buffer, in vivo efficiency", "setting": "[1]; time 64.5 minutes", "result": "*** (*** P < 0.001)"},
      {"measurement": "T-Test probability level of the difference against the Tris buffer, in vivo efficiency", "setting": "[1]; time 99.4 minutes", "result": "** (** P < 0.01)"},
      {"measurement": "T-Test probability level of the difference against the Tris buffer, in vivo efficiency", "setting": "[1]; time 230.2 minutes", "result": "** (** P < 0.01)"},
      {"measurement": "T-Test probability level of the difference against the Tris buffer, in vivo efficiency", "setting": "[1]; time 1354.9 minutes", "result": "** (** P < 0.01)"},
      {"measurement": "isoelectric point (pI)", "setting": "[2]", "result": "no fixed isoelectric point"}
    ]},
    {"substance": "32 kDa CAO-insulin: conjugate of insulin with 32 kDa oxidised colominic acid", "values": [
      {"measurement": "T-Test probability level of the difference against the Tris buffer, in vivo efficiency", "setting": "[1]; time 32.0 minutes", "result": "*** (*** P < 0.001)"},
      {"measurement": "T-Test probability level of the difference against the Tris buffer, in vivo efficiency", "setting": "[1]; time 64.5 minutes", "result": "*** (*** P < 0.001)"},
      {"measurement": "T-Test probability level of the difference against the Tris buffer, in vivo efficiency", "setting": "[1]; time 99.4 minutes", "result": "*** (*** P < 0.001)"},
      {"measurement": "T-Test probability level of the difference against the Tris buffer, in vivo efficiency", "setting": "[1]; time 1354.9 minutes", "result": "* (* P < 0.05)"}
    ]},
    {"substance": "PEG(1500)-B1-insulin: Geiger et al./Ehrat et al. PEG-insulin adduct modified at residue PheB1", "values": [
      {"measurement": "stability to liver enzymes versus native insulin", "setting": "[3]", "result": "far more stable"}
    ]},
    {"substance": "PEG-insulin conjugates: Davis et al. conjugates of insulin with cyanuric chloride activated PEG (2000 Da)", "values": [
      {"measurement": "activity (partially active)", "setting": "[4]", "result": "about 50%"}
    ]},
    {"substance": "insulin [reference compound]", "values": [
      {"measurement": "T-Test probability level of the difference against the Tris buffer, in vivo efficiency", "setting": "[1]; time 32.0 minutes", "result": "*** (*** P < 0.001)"},
      {"measurement": "T-Test probability level of the difference against the Tris buffer, in vivo efficiency", "setting": "[1]; time 64.5 minutes", "result": "*** (*** P < 0.001)"},
      {"measurement": "T-Test probability level of the difference against the Tris buffer, in vivo efficiency", "setting": "[1]; time 99.4 minutes", "result": "*** (*** P < 0.001)"}
    ]},
    {"substance": "mPEG(1500)-B1-insulin: Obermeier et al. site-specific PEG-insulin conjugate modified at residue PheB1", "values": [
      {"measurement": "insulin effect on reduction of blood sugar levels", "setting": "[5]", "result": 100, "unit": "%"}
    ]},
    {"substance": "oxidised colominic acid [CAO]", "values": [
      {"measurement": "slow degradation, % of initial MW", "setting": "[6]; pH 4.0, after 48 hours", "result": "70 % of initial MW"},
      {"measurement": "slow degradation, % of initial MW", "setting": "[6]; pH 5.0, after 48 hours", "result": "92 % of initial MW"},
      {"measurement": "stability of CAO", "setting": "[6]; pH 6.0", "result": "stable for 8 days"},
      {"measurement": "stability of CAO", "setting": "[6]; pH 7.4", "result": "stable for 8 days"}
    ]}
  ]
}
